Laboratory results: patent US20070026072A1, “Benzoquinones of enhanced bioavailability” (priority 2005, published 2007)

Tests used:
[1] = Crystallinity of CoQ10 by modulated differential scanning calorimetry (MDSC); format: physicochemical; conditions: Example 6, 20% total solids; MDSC heat-only, aluminum hermetic pans
Description: Four spray dried powders were made containing CoQ10 and two solubility-enhancing polymers at two CoQ10:polymer ratios for each polymer.

[2] = Dissolution, USP apparatus II (paddles), media containing Cremophor EL and 4% Acconon MC8; format: physicochemical; conditions: Example 6
Protocol: Dissolution properties were measured on the four spray dried powders of Example 1, crystalline CoQ10 and two commercial CoQ10 products (one soft gel and one dry powder capsule). All non-commercial samples were hand-filled into size 1 gelatin capsules (Shinogi Qualicaps). USP apparatus II (paddles) (VK 70100®, Varian Inc.) was used, with a bath temperature of 37° C. at 50 rpm for the first 60 minutes and then 200 rpm for an additional 15 minutes. The media contained Cremophoro EL (BASF Corp.), and 4% Acconono® MC8 (Abitec Corp.). Analysis was performed using high pressure liquid chromatography (HPLC) with UV detection (SCL-10 controller with SPD-10A detector module, Shimadzu Scientific Instruments)

[3] = dissolution method of Example 2

- crystallinity [1]: 100%
- t50% (time for 50% CoQ10 dissolution) [2, 3]: not attained
- t80% (time for 80% CoQ10 dissolution) [2, 3]: not attained
- max. CoQ10 release ([2]; dissolution method of Example 2, 75 minutes): 4.3%
SMILES: COC1=C(OC)C(=O)C(C/C=C(\C)CC/C=C(\C)CC/C=C(\C)CC/C=C(\C)CC/C=C(\C)CC/C=C(\C)CC/C=C(\C)CC/C=C(\C)CC/C=C(\C)CCC=C(C)C)=C(C)C1=O [CoQ10 (as received), Coenzyme Q10]
